In general, EC50 refers to the concentration that produces a half-maximal response. For orientation: IC50 means the concentration that inhibits the measured activity by half. Low values mean inhibition by little substance, high ones a need for much substance.

73 compounds from PubChem BioAssay AID179 (DTP/NCI, 2004) can be followed below.

The source made the active and inactive calls.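 The calls were made as follows: active = compounds giving half or more protection of infected cells from virus-caused growth loss, again on retest; inactive = the rest.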 Where only a bound is given, the exact number is not on record here.

This experiment has as its system CEM cells HIV-1 protection, formazan growth assay. Nature of the experiment: NCI AIDS Antiviral Assay. The following applies: for IC50: measured here: growth of uninfected CEM cells. In outline: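 Protection of CEM cells against HIV-1 measured as cell growth via soluble formazan read-out, with five concentrations tested on both infected and uninfected cells; failure to protect may reflect toxicity.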

Regarding `CCOC(=O)C(=Cc1cccc(Br)c1)C(=O)OCC`, the EC50 was greater than 759 µM and the IC50 amounted to 468 µM. For `CCCOc1ccc(/C(Cl)=C(\C=O)c2ccc(OC)c(OC)c2)cc1OCCC`, in that order: greater than 4.79 µM and greater than 4.79 µM.

Turning to `C=CC(=O)N1CN(C(=O)C=C)CN(C(=O)C=C)C1`, the EC50 is greater than 200 µM and the IC50 amounted to 1.15 µM. With `O=C1CCC2=NCc3c(ccc4ccccc34)N12`, the EC50 is greater than 398 µM and the concentration for half-maximal inhibition (IC50) was 347 µM.

As to `COc1cc2c3c(c1OC)-c1ccccc1C(C(OC(C)=O)c1ccccc1)C3N(C)CC2` (centres undefined), the outcome was inactive. `Cc1ccc(S(=O)(=O)c2ccsc2NC(=O)c2ccccc2)cc1`: the EC50 is greater than 100 µM and the IC50 is greater than 100 µM. For the compound `C[C@]12CCC(=O)C=C1CC[C@@H]1C2CC[C@]2(C)Nc3c(cnn3-c3ccccc3)CC12` (some centres undefined), the result was inactive. With `Cc1ccc(S(=O)OCC23CC4CC(CC(C4)C2)C3)cc1` (centres undefined), the result was inactive. As for `NNc1ncnc(NN)c1Br`, the EC50 is greater than 200 µM and the IC50 turned out to be 56.2 µM. As for `O=C(SC1=NCCS1)SC1=NCCS1`, the outcome was inactive.

For `CN1CCN(C2=C(Cl)C3(OCCS3)C(F)(F)C2(F)F)CC1` (centres undefined), the EC50 was greater than 132 µM and the 50% inhibitory concentration (IC50) is 45.7 µM.

Consider `O=C(/C=C/c1ccccc1)Oc1cccc(O)c1`, for which the EC50 is greater than 200 µM and the IC50 was found to be 5.01 µM. On to `CN=c1ss/c(=N\C(=S)N(C)C)n1-c1ccccc1`, for which the outcome was inactive.

On to `CCCCN(CCCC)c1cc(=O)nc2ccccn12`, for which the EC50 is greater than 200 µM and the IC50 is greater than 200 µM. As to `CC1=NN(c2ccccc2)C(=O)C1N=Nc1ccc(Br)c(C)c1` (centres undefined), the result was inactive.

With `O=C(O)C1CSC2c3ccccc3C(=O)N12` (centres undefined), the EC50 was greater than 200 µM and the IC50 is greater than 200 µM.

On to `S=C(N/N=C/c1ccccc1)Nc1ccc(Oc2ccc(NC(=S)N/N=C/c3ccccc3)cc2)cc1`, for which the EC50 is 8.91 µM and the IC50 was 11.7 µM. In the case of `N#C/C(=C\c1ccc2ccccc2c1)c1ccccc1`, the EC50 was greater than 14.8 µM and the IC50 is greater than 14.8 µM. Turning to `CCOC(=O)C1=C(OC(OCC)C(C)[Se]c2ccccc2)CCC1` (centres undefined), the EC50 is greater than 46.8 µM and the IC50 was found to be 42.7 µM. In the case of `CC(C)/C(Cl)=N/OC(=O)Nc1ccc(F)c(Cl)c1`, the EC50 is greater than 20 µM and the IC50 came to 3.31 µM. `CN1C(=O)c2ccccc2Cc2c(Cl)ncnc21`: the EC50 is greater than 200 µM and the IC50 was found to be 34.7 µM. For `O=C(OC(=C(c1ccccc1)c1ccccc1)N1CCCC1=S)C(c1ccccc1)c1ccccc1`, the EC50 is greater than 200 µM and the IC50 is greater than 200 µM. For `O=[N+]([O-])/C=C/c1ccc(O)cc1`, the result was inactive. As to `CC(=O)O[C@@H]1C(O)C=C2c3cc4c(c(O)c3C(=O)NC2[C@@H]1OC(C)=O)OCO4` (some centres undefined), the outcome was inactive. `COc1ccc(/C=C2\SC(=S)N(C=C3C(=O)NC(=S)NC3=O)C2=O)cc1OC`: the EC50 is greater than 200 µM and the IC50 turned out to be 29.5 µM.

For the compound `N#CC1=C(O)NC(O)=C(C#N)C1c1ccc(C2C(C#N)=C(O)NC(O)=C2C#N)cc1`, the EC50 was greater than 631 µM and the IC50 is 35.5 µM. As for `Cc1nc(-n2nc(-c3ccccc3)cc2-c2ccccc2)sc1C(=O)/C=C/c1cccc([N+](=O)[O-])c1`, the EC50 is greater than 14.5 µM and the IC50 stood at 11 µM.

With `Cc1c(Cl)c(=O)oc2c3c(ccc12)OC(C)(C)[C@H](OC(=O)C12CCC(C)(C(=O)O1)C2(C)C)[C@@H]3OC(=O)C12CCC(C)(C(=O)O1)C2(C)C` (some centres undefined), the EC50 was 0.282 µM and the IC50 turned out to be 5.62 µM. For `CCCCOCn1c(=O)[nH]c(=O)c2ccccc21`, in that order: greater than 200 µM and 162 µM. In the case of `C=C(C)C1Cc2c(cc(O)c3c(=O)c4c(oc23)C(O)Oc2cc(OC)c(OC)cc2-4)O1` (centres undefined), the EC50 was greater than 200 µM and the half-inhibitory concentration (IC50) is 72.4 µM. For `O=C1N=C(SC(SC2=NC(=O)C3(NN2)c2ccccc2-c2ccccc23)=C(SC2=NC(=O)C3(NN2)c2ccccc2-c2ccccc23)SC2=NC(=O)C3(NN2)c2ccccc2-c2ccccc23)NNC12c1ccccc1-c1ccccc12`, the EC50 was greater than 91.2 µM and the IC50 amounted to 42.7 µM.

As to `N#C/C(=C\c1ccc(F)cc1)c1nc2ccccc2c(=O)[nH]1`, the outcome was inactive. With `Cc1ccc(S(=O)(=O)OCCOC(Cc2ccccc2)n2cc(C)c(=O)[nH]c2=O)cc1` (centres undefined), the EC50 is greater than 200 µM and the half-maximal inhibitory concentration (IC50) was greater than 200 µM. Turning to `CNc1ccc(Cl)cc1S(=O)(=O)c1ccccc1Br`, the EC50 was greater than 200 µM and the IC50 was 3.89 µM.

Take `Cc1cc(S(=O)(=O)Nc2nnc3c4c(C)csc4ncn23)c(S)cc1Cl`: the EC50 was greater than 200 µM and the IC50 turned out to be 110 µM.

Consider `CCOC(=O)/C=C/c1nc(C#N)c(N)o1`, for which the EC50 is greater than 200 µM and the IC50 came out at 102 µM. The matching figures for `COc1cc(NCCCCCN=C(N)NC#N)c2ncccc2c1`: greater than 79.4 µM and 50.1 µM.

Regarding `COc1cc2c(cc1OC)C1C(=O)c3c(O)cc4c(c3OC1CO2)C=CC(C)(C)O4` (centres undefined), the EC50 was greater than 1.82 µM and the half-maximal inhibitory concentration (IC50) stood at 0.891 µM. For the compound `CCCOc1csc([C@H]2CCC3[C@@H]4CC=C5C[C@@H](OC(C)=O)CC[C@]5(C)C4CC[C@@]32C)n1` (some centres undefined), the EC50 was greater than 55 µM and the IC50 is greater than 55 µM.

Turning to `N=C(CN1CCCCC1)N1CCCCC1`, the EC50 is greater than 200 µM and the IC50 is greater than 200 µM. `CC(C)OP(=O)(OC(C)C)C(=Nc1ccccc1)NNc1ccc([N+](=O)[O-])cc1`: the EC50 was greater than 32.4 µM and the IC50 worked out at 21.9 µM. Regarding `Cc1cc(O)c2c(c1)C(=O)C=C(Br)C2=O`, the EC50 was greater than 100 µM and the IC50 was 1.58 µM. In the case of `O=C(OC1(c2ccccc2)OC(=O)c2ccccc21)c1ccccc1C(=O)c1ccccc1` (centres undefined), the outcome was inactive. Turning to `C(=N/NC1=NCCN1)/c1c2ccccc2c(/C=N\NC2=NCCN2)c2ccccc12`, the EC50 was greater than 1.07 µM and the IC50 turned out to be 0.0363 µM.

Turning to `O=[n+]1c2c(n([O-])c3ccccc31)-c1cccc3cccc-2c13`, the EC50 was greater than 200 µM and the IC50 was 129 µM. On to `Cc1c2c(n(CCN(C)C)c1C)NN=C(C#N)S2(=O)=O`, for which the EC50 was greater than 200 µM and the IC50 is greater than 200 µM.

For the compound `N#Cc1c(N=C/C=C/c2ccccc2)c(C(=O)Nc2ccccc2)n2c1CCCC2`, the EC50 is greater than 200 µM and the IC50 is greater than 200 µM.

On to `Clc1nc(Cl)nc(NC23CC4CC(CC(C4)C2)C3)n1`, for which the EC50 was greater than 200 µM and the IC50 is 107 µM. The matching figures for `OC(c1ccsc1)c1ccsc1`: greater than 200 µM and greater than 200 µM. The matching figures for `COC1CN(C)C(=Nc2cccc3ccccc23)S1` (centres undefined): greater than 200 µM and 112 µM.

Turning to `FC(F)(Sc1ccccc1)c1nc2ccccc2o1`, the EC50 is greater than 77.6 µM and the IC50 is 66.1 µM. The matching figures for `CS(=O)CC(=O)c1ccccn1` (centres undefined): greater than 200 µM and greater than 200 µM. For the compound `O=c1[nH]cnc2c1C(c1ccccc1)c1ccccc1-2` (centres undefined), the EC50 was greater than 38 µM and the IC50 is greater than 38 µM. For the compound `CNS(=O)(=O)NN(C)S(=O)(=O)c1ccc2ccccc2c1`, the EC50 is greater than 759 µM and the concentration for half-maximal inhibition (IC50) is 110 µM. For `C=C1CC(COc2ccc3c(C)cc(=O)oc3c2)(c2ccccc2)OC1=O` (centres undefined), in that order: greater than 200 µM and 0.603 µM. Consider `Cc1cccc(C)c1NC(=O)C1C(=O)N(c2c(C)cccc2C)C(=O)/C1=N\N` (centres undefined), for which the result was inactive. On to `COc1ccc(/C=N/NC(=O)c2cnc3[nH]c(=O)n(C)c(=O)c3c2)cc1`, for which the EC50 is greater than 200 µM and the IC50 is greater than 200 µM. Turning to `Cc1ccc(S(=O)(=O)O/N=C2\CCC\C2=C/c2ccccc2)cc1`, the outcome was inactive.

As to `CCc1cc2c(c3c1CCCC3=O)CC1(C2)Cc2cc(CC)c3c(c2C1)C(=O)CCC3`, the EC50 was greater than 200 µM and the IC50 was 138 µM. Turning to `CCCCCCCCCCCCCCCCCCOCC(COP(=O)(O)OCC1OC(n2cc(C)c(=O)[nH]c2=O)CC1N=[N+]=[N-])OC(=O)CCCCCCCCCCCCCCC` (centres undefined), the EC50 is greater than 50.1 µM and the IC50 is greater than 50.1 µM. For `COc1ccccc1C1c2cc3c(cc2OC(N2CCCC2)C1C)OCO3` (centres undefined), the EC50 was greater than 200 µM and the concentration for half-maximal inhibition (IC50) came to 16.2 µM. As to `Cc1cccc(-n2c(N)c(-c3nc4ccccc4[nH]3)sc2=S)c1`, the EC50 was greater than 5.89 µM and the IC50 is greater than 5.89 µM. As to `OCCN(CCO)c1ccc2c(C(F)(F)F)cc(C(F)(F)F)nc2n1`, the EC50 is greater than 200 µM and the IC50 is 148 µM. In the case of `O=c1/c(=C/c2ccccc2O)sc2nc3ccccc3n12`, the EC50 was greater than 17.8 µM and the 50% inhibitory concentration (IC50) was greater than 17.8 µM. `CCOC(=O)C1(CO)CSCCSC1`: the EC50 is greater than 1050 µM and the IC50 was greater than 1050 µM. Turning to `c1ccc(N2N=C(c3ccco3)CC2c2ccco2)cc1` (centres undefined), the EC50 is greater than 25.7 µM and the IC50 is greater than 25.7 µM. On to `CCCCCCCCCCCCCCCCCC(=O)OC[C@H](COP(=O)(O)OCCNC(=O)CCC(=O)NCCC=C(c1cc(Cl)c(OC)c(C(=O)OC)c1)c1cc(Cl)c(OC)c(C(=O)OC)c1)OC(=O)CCCCCCCCCCCCCCCCC`, for which the EC50 was greater than 50.1 µM and the IC50 was greater than 50.1 µM.

Regarding `COc1ccc(C(N)=O)cc1N=NN(C)C`, the EC50 was greater than 1120 µM and the IC50 was 501 µM. For `O=c1c(-c2ccc(O)c(O)c2)coc2cc(O)cc(O)c12`, in that order: greater than 200 µM and 15.8 µM. As for `O=C1CC2C3CC4CC(C3)CC2(C4)O1` (centres undefined), the EC50 is greater than 200 µM and the IC50 was greater than 200 µM.

`COc1c(C)c2c(c(O)c1C/C=C(\C)CCC(=O)O)C(=O)OC2`: the EC50 is greater than 7.76 µM and the IC50 was determined as 0.0355 µM. Consider `CC1(C)Oc2ccc3ccc(=O)oc3c2C(O)C1O` (centres undefined), for which the EC50 is greater than 200 µM and the IC50 came out at 115 µM. `O=C(O)c1ccc(CSc2ccccc2C(=O)O)c([N+](=O)[O-])c1`: the EC50 was greater than 759 µM and the IC50 was greater than 759 µM.
